{"source": "patent US8530421B2", "about": "“Isolated polypeptides used for treatment of inflammatory diseases and inhibiting cancer metastasis” (Supadelixir Inc., priority 2009, dated 2013)", "tested_on": "IgE-mediated immediate hypersensitivity reaction-induced mice", "assay": "IgE-mediated immediate hypersensitivity reaction, ear thickness", "assay_type": "in vivo, Balb/c mice", "conditions": "100 μg tail vein, then 100 μg intraperitoneally daily from third day; DNFB antigen; 15 days", "protocol": "Anti-allergic activity of the polypeptide according to the present invention was investigated. Balb/c mice (about 6 weeks old) were sensitized by injecting IgE antibody (5 μg) through the tail vain thereof. After 24 hours, the protein solution (100 μl) prepared by dissolving the peptide fragment of SEQ ID NO: 13 (100 μg) in PBS (100 μl) was injected through the tail vain of the sensitized mice. A 0.15% DNFB solution [2,4-d]nitrofluorobenzene in aceton: olive oil (4:1)] as an antigen was applied on each ear of the mice so as to induce IgE-mediated immediate hypersensitivity. In case of the negative control mice, only PBS (100 μl) was injected without treating a 0.15% DNFB solution. In case of the positive control mice, PBS (100 μl) was injected and then a 0.15% DNFB solution was treated. The changes in ear thickness were measured with a digital caliper every hour for 12 hours. Every day from the third day, the peptide fragment of SEQ ID NO: 13 (100 μg) was intraperitoneally injected to the test group mice, while only PBS was intraperitoneally injected to the control group mice. The changes in ear thickness were measured for 15 days.\nFIG. 12 is the graph obtained by comparing the ear thickness changes of the test group mice and the positive control mice (increased by treating a 0.15% DNFB solution) with those of the negative control.", "data": [{"substance": "SEQ ID NO: 13: Leu-Xaa-Asp with Xaa Ala; CD99L2 fragment 121~123, PBDX(or XG) fragment 27~29 (LAD; listed as Homo sapiens)", "values": [{"measurement": "ear thickness increments relative to the positive control group", "result": "remarkably decreased"}]}]}
